Measurements from PubChem BioAssay (NCI).
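Grown in 96-well plates, cells were treated for 48 hours with each compound at five concentrations. Insufficient inhibition: endpoint recorded as highest concentration tested. GI50 = concentration required for 50% inhibition of growth. TGI denotes the concentration required for complete inhibition of growth.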

What was measured:
Assay in all cases: NCI anticancer screen, dose series, 48 h
HS 578T breast = test system: HS 578T breast
IGROV1 ovarian = test system: IGROV1 ovarian
OVCAR-4 ovarian = test system: OVCAR-4 ovarian
SK-MEL-28 melanoma = test system: SK-MEL-28 melanoma
TK-10 renal = test system: TK-10 renal
K-562 leukemia = test system: K-562 leukemia
UO-31 renal = test system: UO-31 renal
SK-MEL-2 melanoma = test system: SK-MEL-2 melanoma
MDA-MB-468 breast = test system: MDA-MB-468 breast
PC-3 prostate = test system: PC-3 prostate
HOP-62 NSCLC = test system: HOP-62 NSCLC
CCRF-CEM leukemia = test system: CCRF-CEM leukemia
U251 CNS = test system: U251 CNS
MALME-3M melanoma = test system: MALME-3M melanoma
MDA-MB-231 breast = test system: MDA-MB-231 breast
DU-145 prostate = test system: DU-145 prostate
786-0 renal = test system: 786-0 renal
HCT-15 colon = test system: HCT-15 colon
SN12C renal = test system: SN12C renal
MDA-MB-435 = test system: MDA-MB-435
SF-268 CNS = test system: SF-268 CNS
SK-MEL-5 melanoma = test system: SK-MEL-5 melanoma
HCC-2998 colon = test system: HCC-2998 colon
RPMI-8226 leukemia = test system: RPMI-8226 leukemia
HL-60(TB) leukemia = test system: HL-60(TB) leukemia
RXF 393 renal = test system: RXF 393 renal
ACHN renal = test system: ACHN renal
NCI-H522 lung = test system: NCI-H522 lung
NCI-H460 lung = test system: NCI-H460 lung
SK-OV-3 ovarian = test system: SK-OV-3 ovarian
COLO 205 colon = test system: COLO 205 colon
SF-295 CNS = test system: SF-295 CNS
HOP-92 NSCLC = test system: HOP-92 NSCLC
NCI-H23 lung = test system: NCI-H23 lung
NCI-H226 lung = test system: NCI-H226 lung
HCT-116 colon = test system: HCT-116 colon
SNB-75 CNS = test system: SNB-75 CNS
SW-620 colon = test system: SW-620 colon
CAKI-1 renal = test system: CAKI-1 renal
OVCAR-8 ovarian = test system: OVCAR-8 ovarian
T-47D breast = test system: T-47D breast
BT-549 breast = test system: BT-549 breast
KM12 colon = test system: KM12 colon
UACC-62 melanoma = test system: UACC-62 melanoma
LOX IMVI melanoma = test system: LOX IMVI melanoma
SF-539 CNS = test system: SF-539 CNS
NCI/ADR-RES ovarian = test system: NCI/ADR-RES ovarian
A498 renal = test system: A498 renal
MCF7 breast = test system: MCF7 breast
OVCAR-5 ovarian = test system: OVCAR-5 ovarian
M14 melanoma = test system: M14 melanoma
UACC-257 melanoma = test system: UACC-257 melanoma
A549 NSCLC = test system: A549 NSCLC
HT29 colon = test system: HT29 colon
EKVX NSCLC = test system: EKVX NSCLC
SNB-19 CNS = test system: SNB-19 CNS
MOLT-4 leukemia = test system: MOLT-4 leukemia
OVCAR-3 ovarian = test system: OVCAR-3 ovarian

CCCSc1nc(Nc2ccc(S(N)(=O)=O)cc2)c(C#N)c(-c2cc(OC)c(OC)c(OC)c2)n1
GI50 (HS 578T breast): 7.33 µM
TGI (HS 578T breast): > 100 µM
GI50 (IGROV1 ovarian): 25.9 µM
TGI (IGROV1 ovarian): > 100 µM
GI50 (OVCAR-4 ovarian): 6.39 µM
TGI (OVCAR-4 ovarian): > 100 µM
GI50 (SK-MEL-28 melanoma): 7.29 µM
TGI (SK-MEL-28 melanoma): > 100 µM
GI50 (TK-10 renal): 16.1 µM
TGI (TK-10 renal): > 100 µM
GI50 (K-562 leukemia): 3.52 µM
TGI (K-562 leukemia): > 100 µM
GI50 (UO-31 renal): 2.59 µM
TGI (UO-31 renal): > 100 µM
GI50 (SK-MEL-2 melanoma): 11.8 µM
TGI (SK-MEL-2 melanoma): > 100 µM
GI50 (MDA-MB-468 breast): 6.22 µM
TGI (MDA-MB-468 breast): 65.4 µM
GI50 (PC-3 prostate): 2.8 µM
TGI (PC-3 prostate): > 100 µM
GI50 (HOP-62 NSCLC): 11.1 µM
TGI (HOP-62 NSCLC): > 100 µM
GI50 (CCRF-CEM leukemia): 3.44 µM
TGI (CCRF-CEM leukemia): > 100 µM
GI50 (U251 CNS): 5.37 µM
TGI (U251 CNS): > 100 µM
GI50 (MALME-3M melanoma): 5.78 µM
TGI (MALME-3M melanoma): 75.4 µM
GI50 (MDA-MB-231 breast): 7.23 µM
TGI (MDA-MB-231 breast): > 100 µM
GI50 (DU-145 prostate): 7.93 µM
TGI (DU-145 prostate): > 100 µM
GI50 (786-0 renal): 10.4 µM
TGI (786-0 renal): > 100 µM
GI50 (HCT-15 colon): 3.4 µM
TGI (HCT-15 colon): > 100 µM
GI50 (SN12C renal): 5.77 µM
TGI (SN12C renal): > 100 µM
GI50 (MDA-MB-435): 4.9 µM
TGI (MDA-MB-435): > 100 µM
GI50 (SF-268 CNS): 9.84 µM
TGI (SF-268 CNS): > 100 µM
GI50 (SK-MEL-5 melanoma): 2.75 µM
TGI (SK-MEL-5 melanoma): 12.1 µM
GI50 (HCC-2998 colon): 7.53 µM
TGI (HCC-2998 colon): > 100 µM
GI50 (RPMI-8226 leukemia): 3.56 µM
TGI (RPMI-8226 leukemia): > 100 µM
GI50 (HL-60(TB) leukemia): 2.93 µM
TGI (HL-60(TB) leukemia): 33.2 µM
GI50 (RXF 393 renal): 2.36 µM
TGI (RXF 393 renal): 9.67 µM
GI50 (ACHN renal): 4.88 µM
TGI (ACHN renal): > 100 µM
GI50 (NCI-H522 lung): 10.7 µM
TGI (NCI-H522 lung): > 100 µM
GI50 (NCI-H460 lung): 5.46 µM
TGI (NCI-H460 lung): > 100 µM
GI50 (SK-OV-3 ovarian): 55.1 µM
TGI (SK-OV-3 ovarian): > 100 µM
GI50 (COLO 205 colon): 8.77 µM
TGI (COLO 205 colon): > 100 µM
GI50 (SF-295 CNS): 3.75 µM
TGI (SF-295 CNS): 28.3 µM
GI50 (HOP-92 NSCLC): 3.98 µM
TGI (HOP-92 NSCLC): 63.6 µM
GI50 (NCI-H23 lung): 15.7 µM
TGI (NCI-H23 lung): > 100 µM
GI50 (NCI-H226 lung): 6.07 µM
TGI (NCI-H226 lung): > 100 µM
GI50 (HCT-116 colon): 4.38 µM
TGI (HCT-116 colon): > 100 µM
GI50 (SNB-75 CNS): 2.09 µM
TGI (SNB-75 CNS): > 100 µM
GI50 (SW-620 colon): 8.34 µM
TGI (SW-620 colon): > 100 µM
GI50 (CAKI-1 renal): 5.76 µM
TGI (CAKI-1 renal): > 100 µM
GI50 (OVCAR-8 ovarian): 5 µM
TGI (OVCAR-8 ovarian): > 100 µM
GI50 (T-47D breast): 2.76 µM
TGI (T-47D breast): 51 µM
GI50 (BT-549 breast): 3.24 µM
TGI (BT-549 breast): 32.5 µM
GI50 (KM12 colon): 4.77 µM
TGI (KM12 colon): > 100 µM
GI50 (UACC-62 melanoma): 6.25 µM
TGI (UACC-62 melanoma): > 100 µM
GI50 (LOX IMVI melanoma): 3.68 µM
TGI (LOX IMVI melanoma): > 100 µM
GI50 (SF-539 CNS): 21.4 µM
TGI (SF-539 CNS): > 100 µM
GI50 (NCI/ADR-RES ovarian): 4.6 µM
TGI (NCI/ADR-RES ovarian): > 100 µM
GI50 (A498 renal): > 100 µM
TGI (A498 renal): > 100 µM
GI50 (MCF7 breast): 4.23 µM
TGI (MCF7 breast): > 100 µM
GI50 (OVCAR-5 ovarian): 32.7 µM
TGI (OVCAR-5 ovarian): > 100 µM
GI50 (M14 melanoma): 6.74 µM
TGI (M14 melanoma): > 100 µM
GI50 (UACC-257 melanoma): 19.2 µM
TGI (UACC-257 melanoma): > 100 µM
GI50 (A549 NSCLC): 4.31 µM
TGI (A549 NSCLC): > 100 µM
GI50 (HT29 colon): 6.89 µM
TGI (HT29 colon): > 100 µM
GI50 (EKVX NSCLC): 5.27 µM
TGI (EKVX NSCLC): > 100 µM
GI50 (SNB-19 CNS): 11.7 µM
TGI (SNB-19 CNS): > 100 µM
GI50 (MOLT-4 leukemia): 2.53 µM
TGI (MOLT-4 leukemia): 8.95 µM
GI50 (OVCAR-3 ovarian): 6.07 µM
TGI (OVCAR-3 ovarian): > 100 µM
